Results published in patent publication US20140206681A1, “BTK INHIBITORS” (priority 2013, published 2014).

Experiments:
[1] = target: T1, BTK enzyme (recombinant full-length BTK, hBTK) (Homo sapiens, UniProt Q06187); test: BTK enzyme activity assay, LANCE TR-FRET; type: biochemical; details: 50 pM hBTK, 2 μM biotin-A5-peptide, 25 μM ATP; 60 min compound & enzyme incubation; read-out: IC50 BTK activity value
T1 construct: recombinant protein from baculovirus-transfected Sf9 cells: full-length BTK, 6HIS-tag cleaved; 6HIS (cleaved yes); made in house; host or cells: baculovirus-transfected Sf9 cells
T1 sequence (Q06187 whole entry): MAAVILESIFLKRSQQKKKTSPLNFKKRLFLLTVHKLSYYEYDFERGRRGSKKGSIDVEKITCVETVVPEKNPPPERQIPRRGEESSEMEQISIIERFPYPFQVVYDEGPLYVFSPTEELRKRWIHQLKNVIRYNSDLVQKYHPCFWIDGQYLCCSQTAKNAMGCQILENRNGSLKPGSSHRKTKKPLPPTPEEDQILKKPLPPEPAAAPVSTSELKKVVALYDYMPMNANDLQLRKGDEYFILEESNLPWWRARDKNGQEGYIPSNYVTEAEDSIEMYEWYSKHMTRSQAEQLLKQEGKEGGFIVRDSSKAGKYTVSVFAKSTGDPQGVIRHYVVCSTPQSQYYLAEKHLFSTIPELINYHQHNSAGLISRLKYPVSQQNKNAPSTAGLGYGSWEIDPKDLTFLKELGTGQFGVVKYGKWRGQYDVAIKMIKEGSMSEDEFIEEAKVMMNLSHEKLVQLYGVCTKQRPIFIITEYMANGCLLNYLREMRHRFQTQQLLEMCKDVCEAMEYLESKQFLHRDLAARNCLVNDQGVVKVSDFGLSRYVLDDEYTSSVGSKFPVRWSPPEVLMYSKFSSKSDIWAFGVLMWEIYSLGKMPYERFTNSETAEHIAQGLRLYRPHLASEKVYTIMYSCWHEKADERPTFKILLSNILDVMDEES

HeLa cells = test: [3H]Adenosine uptake functional cellular assay; type: cell-based; details: Homo sapiens, HeLa, accumulation of [3H]adenosine into HeLa cells; compound range 10 μM to […]; read-out: Adenosine uptake inhibition IC50
Outline: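 Inhibition of adenosine uptake was measured in HeLa cells (ATCC CCL-2) by following accumulation of tritiated adenosine. Cells were kept overnight at 37° C. with 5% (v/v) CO2, then switched to 40 μL HBSS plus 5% (v/v) FBS. 20 μL of 500 nM [3H]adenosine was added, and uptake was counted on a Topcount NXT reader.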

`Nc1nccn2c([C@H]3CC[C@@H]4CCOC(=O)N4C3)nc(-c3ccc(C(=O)Nc4cc(C(F)(F)F)ccn4)cc3)c12` [Example 93, 4-{8-amino-3-[(4aR,7S)-1-oxohexahydro-3H-pyrido[1,2-c][1,3]oxazin-7-yl]imidazo[1,5-a]pyrazin-1-yl}-N-[4-(trifluoromethyl)pyridin-2-yl]benzamide] gave an IC50 [1] of 2.6 nM and an IC50 (HeLa cells) of 158 nM.

`CC1(C)C[C@H]2CC[C@H](c3nc(-c4ccc(C(=O)Nc5cc(C(F)(F)F)ccn5)cc4)c4c(N)nccn34)CN2C1=O` [Example 94, 4-{8-amino-3-[(6S,8aR)-2,2-dimethyl-3-oxooctahydroindolizin-6-yl]imidazo[1,5-a]pyrazin-1-yl}-N-[4-(trifluoromethyl)pyridin-2-yl]benzamide] gave an IC50 [1] of 0.14 nM and an IC50 (HeLa cells) of 63.2 nM.

For `C[C@@H]1OC(=N)N2C[C@H](c3nc(-c4ccc(C(=O)Nc5cc(C(F)(F)F)ccn5)cc4)c4c(N)nccn34)CC[C@@H]12` [Example 96, 4-{8-amino-3-[(1S,6R,8aS)-3-imino-1-methylhexahydro[1,3]oxazolo[3,4-a]pyridin-6-yl]imidazo[1,5-a]pyrazin-1-yl}-N-[4-(trifluoromethyl)pyridin-2-yl]benzamide], the IC50 [1] was 1.3 nM and the IC50 (HeLa cells) was 1140 nM.

Work on `CC(O)c1ccnc(NC(=O)c2ccc(-c3nc([C@@H]4CC[C@H]5CCC(=O)N5C4)n4ccnc(N)c34)cc2)c1` (stereo partly drawn) [Example 97, 4-{8-amino-3-[(6R,8aS)-3-oxooctahydroindolizin-6-yl]imidazo[1,5-a]pyrazin-1-yl}-N-[4-(1-hydroxyethyl)pyridin-2-yl]benzamide] yielded an IC50 [1] of 9.7 nM and an IC50 (HeLa cells) of 5380 nM.

`CC(C)(O)c1ccnc(NC(=O)c2ccc(-c3nc([C@@H]4CC[C@H]5CCC(=O)N5C4)n4ccnc(N)c34)cc2)c1` [Example 98, 4-{8-amino-3-[(6R,8aS)-3-oxooctahydroindolizin-6-yl]imidazo[1,5-a]pyrazin-1-yl}-N-[4-(1-hydroxy-1-methylethyl)pyridin-2-yl]benzamide] was tested, and the IC50 [1] was 49.3 nM and the IC50 (HeLa cells) was 6320 nM.

Work on `COC(C)c1ccnc(NC(=O)c2ccc(-c3nc([C@@H]4CC[C@H]5CCC(=O)N5C4)n4ccnc(N)c34)cc2)c1` (stereo partly drawn) [Example 99, 4-{8-amino-3-[(6R,8aS)-3-oxooctahydroindolizin-6-yl]imidazo[1,5-a]pyrazin-1-yl}-N-[4-(1-methoxyethyl)pyridin-2-yl]benzamide] yielded an IC50 [1] of 1.5 nM and an IC50 (HeLa cells) of 184 nM.

In the case of `COc1cc(C(=O)Nc2cc(C(F)(F)F)ccn2)ccc1-c1nc([C@@H]2CC[C@H]3CC(C)(C)C(=O)N3C2)n2ccnc(N)c12` [Example 100, 4-{8-amino-3-[(6R,8aS)-2,2-dimethyl-3-oxooctahydroindolizin-6-yl]imidazo[1,5-a]pyrazin-1-yl}-3-methoxy-N-[4-(trifluoromethyl)pyridin-2-yl]benzamide], the IC50 [1] is reported as 0.51 nM and the IC50 (HeLa cells) is reported as 463 nM.

Work on `COc1cc(C(=O)Nc2cc(C(F)(F)F)ccn2)ccc1-c1nc([C@H]2CC[C@@H]3CC(C)(C)C(=O)N3C2)n2ccnc(N)c12` [Example 101, 4-{8-amino-3-[(6S,8aR)-2,2-dimethyl-3-oxooctahydroindolizin-6-yl]imidazo[1,5-a]pyrazin-1-yl}-3-methoxy-N-[4-(trifluoromethyl)pyridin-2-yl]benzamide] yielded an IC50 [1] of 45.4 nM and an IC50 (HeLa cells) of 487 nM.

`Nc1nccn2c([C@@H]3CC[C@H]4CN(C(=O)c5ccncc5)CC(=O)N4C3)nc(-c3ccc(C(=O)Nc4cc(C(F)(F)F)ccn4)cc3)c12` [Example 102, 4-{8-amino-3-[(7R,9aS)-4-oxo-2-(pyridin-4-ylcarbonyl)octahydro-2H-pyrido[1,2-a]pyrazin-7-yl]imidazo[1,5-a]pyrazin-1-yl}-N-[4-(trifluoromethyl)pyridin-2-yl]benzamide] was tested, and the IC50 [1] was 0.21 nM and the IC50 (HeLa cells) was 471 nM.

For `COC(=O)c1ccnc(NC(=O)c2ccc(-c3nc([C@@H]4CC[C@H]5CCC(=O)N5C4)n4ccnc(N)c34)cc2)c1` [Example 103, methyl 2-{[(4-{8-amino-3-[(6R,8aS)-3-oxooctahydroindolizin-6-yl]imidazo[1,5-a]pyrazin-1-yl}phenyl)carbonyl]amino}pyridine-4-carboxylate], the IC50 [1] was 0.4 nM and the IC50 (HeLa cells) was 69.3 nM.

`Nc1nccn2c([C@@H]3CC[C@H]4CCC(=O)N4C3)nc(-c3ccc(C(=O)Nc4cc(C(F)(F)F)cnn4)cc3)c12` [Example 104, 4-{8-amino-3-[(6R,8aS)-3-oxooctahydroindolizin-6-yl]imidazo[1,5-a]pyrazin-1-yl}-N-[5-(trifluoromethyl)pyridazin-3-yl]benzamide] showed an IC50 [1] of 1.2 nM and an IC50 (HeLa cells) of 303 nM.

`Nc1nccn2c([C@@H]3CC[C@H]4CCC(=O)N4C3)nc(-c3ccc(C(=O)Nc4cc5ccccc5cn4)cc3)c12` [Example 106, 4-{8-amino-3-[(6R,8aS)-3-oxooctahydroindolizin-6-yl]imidazo[1,5-a]pyrazin-1-yl}-N-isoquinolin-3-ylbenzamide] gave an IC50 [1] of 0.19 nM and an IC50 (HeLa cells) of 193 nM.

For `Nc1nccn2c([C@H]3CN4C(=O)CC[C@@H]4CO3)nc(-c3ccc(C(=O)Nc4cc(C(F)(F)F)ccn4)cc3)c12` [Example 107, 4-{8-amino-3-[(3R,8aR)-6-oxohexahydro-1H-pyrrolo[2,1-c][1,4]oxazin-3-yl]imidazo[1,5-a]pyrazin-1-yl}-N-[4-(trifluoromethyl)pyridin-2-yl]benzamide], the IC50 [1] was 0.26 nM and the IC50 (HeLa cells) was 206 nM.

`Nc1nccn2c([C@@H]3CC[C@H]4CN(CC(=O)O)CC(=O)N4C3)nc(-c3ccc(C(=O)Nc4cc(C(F)(F)F)ccn4)cc3)c12` [Example 108, {(7R,9aS)-7-[8-amino-1-(4-{[4-(trifluoromethyl)pyridin-2-yl]carbamoyl}phenyl)imidazo[1,5-a]pyrazin-3-yl]-4-oxooctahydro-2H-pyrido[1,2-a]pyrazin-2-yl}acetic acid] was tested, and the IC50 [1] was 0.22 nM and the IC50 (HeLa cells) was 2880 nM.

Molecule `C=C[C@@H]1OC(=O)N2C[C@H](c3nc(-c4ccc(C(=O)Nc5cc(C(F)(F)F)ccn5)cc4)c4c(N)nccn34)CC[C@@H]12` [Example 109, 4-{8-amino-3-[(1S,6R,8aS)-1-ethenyl-3-oxohexahydro[1,3]oxazolo[3,4-a]pyridin-6-yl]imidazo[1,5-a]pyrazin-1-yl}-N-[4-(trifluoromethyl)pyridin-2-yl]benzamide] has an IC50 [1] of 6.3 nM and an IC50 (HeLa cells) of 116 nM.

Molecule `C=C[C@H]1OC(=O)N2C[C@H](c3nc(-c4ccc(C(=O)Nc5cc(C(F)(F)F)ccn5)cc4)c4c(N)nccn34)CC[C@@H]12` [Example 110, 4-{8-amino-3-[(1R,6R,8aS)-1-ethenyl-3-oxohexahydro[1,3]oxazolo[3,4-a]pyridin-6-yl]imidazo[1,5-a]pyrazin-1-yl}-N-[4-(trifluoromethyl)pyridin-2-yl]benzamide] has an IC50 [1] of 16.8 nM and an IC50 (HeLa cells) of 100 nM.

`CN1CC[C@H]2CC[C@@H](c3nc(-c4ccc(C(=O)Nc5cc(C(F)(F)F)ccn5)cc4)c4c(N)nccn34)CN2C1=O` [Example 111, 4-{8-amino-3-[(4aR,7R)-2-methyl-1-oxooctahydro-1H-pyrido[1,2-c]pyrimidin-7-yl]imidazo[1,5-a]pyrazin-1-yl}-N-[4-(trifluoromethyl)pyridin-2-yl]benzamide] was tested, and the IC50 [1] was 5.2 nM and the IC50 (HeLa cells) was 458 nM.

With `Nc1nccn2c([C@@H]3CC[C@H]4CCC(=O)N4C3)nc(-c3ccc(C(=O)Nc4cc(C(F)(F)F)ccn4)cc3Cl)c12` [Example 112, 4-{8-amino-3-[(6R,8aS)-3-oxooctahydroindolizin-6-yl]imidazo[1,5-a]pyrazin-1-yl}-3-chloro-N-[4-(trifluoromethyl)pyridin-2-yl]benzamide] the IC50 [1] was 0.57 nM and the IC50 (HeLa cells) was 415 nM.

With `CC(F)(F)c1cc(C(=O)Nc2cc(C(F)(F)F)ccn2)ccc1-c1nc([C@@H]2CC[C@H]3CCC(=O)N3C2)n2ccnc(N)c12` [Example 114, 4-{8-amino-3-[(6R,8aS)-3-oxooctahydroindolizin-6-yl]imidazo[1,5-a]pyrazin-1-yl}-3-(1,1-difluoroethyl)-N-[4-(trifluoromethyl)pyridin-2-yl]benzamide] the IC50 [1] was 831 nM and the IC50 (HeLa cells) was 587 nM.

In the case of `CCOc1cc(C(=O)Nc2cc(C(F)(F)F)n(C)n2)c(F)cc1-c1nc([C@@H]2CC[C@H]3CCC(=O)N3C2)n2c(Cl)cnc(N)c12` [Example 115, 4-(8-amino-5-chloro-3-((6R,8aS)-3-oxooctahydroindolizin-6-yl)imidazo[1,5-a]pyrazin-1-yl)-5-ethoxy-2-fluoro-N-(1-methyl-5-(trifluoromethyl)-1H-pyrazol-3-yl)benzamide], the IC50 [1] is reported as 0.67 nM and the IC50 (HeLa cells) is reported as 1690 nM.

Work on `N#Cc1cnc(NC(=O)c2ccc(-c3nc([C@@H]4CC[C@H]5CCC(=O)N5C4)n4ccnc(N)c34)cc2)cc1C(F)(F)F` [Example 117, 4-{8-amino-3-[(6R,8aS)-3-oxooctahydroindolizin-6-yl]imidazo[1,5-a]pyrazin-1-yl}-N-[5-cyano-4-(trifluoromethyl)pyridin-2-yl]benzamide] yielded an IC50 [1] of 2.1 nM and an IC50 (HeLa cells) of 102 nM.

With `Nc1nccn2c([C@@H]3CC[C@H]4CCC(=O)N4C3)nc(-c3ccc(C(=O)Nc4cc(C(F)(F)F)ccn4)cc3O)c12` [Example 118, 4-{8-amino-3-[(6R,8aS)-3-oxooctahydroindolizin-6-yl]imidazo[1,5-a]pyrazin-1-yl}-3-hydroxy-N-[4-(trifluoromethyl)pyridin-2-yl]benzamide] the IC50 [1] was 0.58 nM and the IC50 (HeLa cells) was 832 nM.

`Nc1nccn2c([C@@H]3CC[C@H]4CCC(=O)N4C3)nc(-c3ccc(C(=O)Nc4cc(C(F)(F)F)ccn4)nc3)c12` [Example 119, 5-{8-amino-3-[(6R,8aS)-3-oxooctahydroindolizin-6-yl]imidazo[1,5-a]pyrazin-1-yl}-N-[4-(trifluoromethyl)pyridin-2-yl]pyridine-2-carboxamide] was tested, and the IC50 [1] was 3.3 nM and the IC50 (HeLa cells) was 451 nM.
